Species: Rattus norvegicus
Experiment: Open TG-GATES - Regimen: Daily Repeat
Assay type: toxicity, organism-based, Sprague-Dawley
Set-up: regimen Daily Repeat, gender Male, age 6 weeks
Details: in vivo, po, 0 mg/kg, route gavage, dose level Control; for APTT / Bas / Eos / Fbg / Hb / Ht / Lym / MCH / MCHC / MCV / Mono / Neu / PT / Plat / RBC / Ret / WBC: tissue Blood; for KIDNEY_L / KIDNEY_R / KIDNEY_TOTAL: tissue Kidney; for LIVER: tissue Liver; for A/G / ALP / ALT / AST / BUN / CRE / Ca / Cl / DBIL / GLC / IP / K / LDH / Na / PL / RALB / TBIL / TC / TG / TP / gamma-GTP: tissue Plasma

`O=NN(CCCl)C(=O)NC1CCCCC1` [LOMUSTINE] gave a TERMINAL_BW (72 h, time 3 day) of 220.6 g, an APTT (72 h, time 3 day) of 17.7 s and a Bas (72 h, time 3 day) of 0%. The Eos (72 h, time 3 day) was 0.6%, the Fbg (72 h, time 3 day) was 234 mg/dL and the Hb (72 h, time 3 day) was 13.5 g/dL. For the same compound, the Ht (72 h, time 3 day) was 40.6%, the Lym (72 h, time 3 day) was 76.8% and the MCH (72 h, time 3 day) was 21.8 pg. For the same compound, the MCHC (72 h, time 3 day) was 33.3%, the MCV (72 h, time 3 day) was 65.5 fL and the Mono (72 h, time 3 day) was 6.4%. The Neu (72 h, time 3 day) was 16.2%, the PT (72 h, time 3 day) was 11.8 s and the Plat (72 h, time 3 day) was 108.6 x10_4/uL. The RBC (72 h, time 3 day) was 619.4 x10_4/ul, the Ret (72 h, time 3 day) was 7.2% and the WBC (72 h, time 3 day) was 131.9 x10_2/uL. For the same compound, the KIDNEY_L (72 h, time 3 day) was 1 g, the KIDNEY_R (72 h, time 3 day) was 1 g and the KIDNEY_TOTAL (72 h, time 3 day) was 2 g. The LIVER (72 h, time 3 day) was 10.5 g, the A/G (72 h, time 3 day) was 2 and the ALP (72 h, time 3 day) was 1042.6 IU/L. For the same compound, the ALT (72 h, time 3 day) was 33.6 IU/L, the AST (72 h, time 3 day) was 69.4 IU/L and the BUN (72 h, time 3 day) was 18 mg/dL. The CRE (72 h, time 3 day) was 0.5 mg/dL, the Ca (72 h, time 3 day) was 11 mg/dL and the Cl (72 h, time 3 day) was 104.4 meq/L. For the same compound, the DBIL (72 h, time 3 day) was 0.006 mg/dL, the GLC (72 h, time 3 day) was 186.2 mg/dL and the IP (72 h, time 3 day) was 8.5 mg/dL. It also gave a K (72 h, time 3 day) of 5.1 meq/L, an LDH (72 h, time 3 day) of 99.8 IU/L and a Na (72 h, time 3 day) of 140 meq/L. The PL (72 h, time 3 day) was 147.6 mg/dL, the RALB (72 h, time 3 day) was 3.9 g/dL and the TBIL (72 h, time 3 day) was 0.4 mg/dL. The TC (72 h, time 3 day) was 74.8 mg/dL, the TG (72 h, time 3 day) was 114.6 mg/dL and the TP (72 h, time 3 day) was 5.9 g/dL. The gamma-GTP (72 h, time 3 day) was 2 IU/L, the TERMINAL_BW ([…], time 7 day) was 258.9 g and the TERMINAL_BW ([…], time 14 day) was 305.2 g. The TERMINAL_BW ([…], time 28 day) was 379.6 g, the APTT ([…], time 7 day) was 17.7 s and the Bas ([…], time 7 day) was 0%. It also gave an Eos ([…], time 7 day) of 1%, a Fbg ([…], time 7 day) of 241.8 mg/dL and a Hb ([…], time 7 day) of 13.4 g/dL. It also gave a Ht ([…], time 7 day) of 40.2%, a Lym ([…], time 7 day) of 79.6% and an MCH ([…], time 7 day) of 21.8 pg. The MCHC ([…], time 7 day) was 33.4%, the MCV ([…], time 7 day) was 65.2 fL and the Mono ([…], time 7 day) was 6%. The Neu ([…], time 7 day) was 14.2%, the PT ([…], time 7 day) was 11.4 s and the Plat ([…], time 7 day) was 107.5 x10_4/uL. It also gave an RBC ([…], time 7 day) of 617.4 x10_4/ul, a Ret ([…], time 7 day) of 7.2% and a WBC ([…], time 7 day) of 161 x10_2/uL. For the same compound, the APTT ([…], time 14 day) was 16.7 s, the Bas ([…], time 14 day) was 0% and the Eos ([…], time 14 day) was 0.4%. For the same compound, the Fbg ([…], time 14 day) was 224.4 mg/dL, the Hb ([…], time 14 day) was 14.1 g/dL and the Ht ([…], time 14 day) was 42%. It also gave a Lym ([…], time 14 day) of 80.8%, an MCH ([…], time 14 day) of 20.3 pg and an MCHC ([…], time 14 day) of 33.5%. For the same compound, the MCV ([…], time 14 day) was 60.7 fL, the Mono ([…], time 14 day) was 6.8% and the Neu ([…], time 14 day) was 11.8%. It also gave a PT ([…], time 14 day) of 11.4 s, a Plat ([…], time 14 day) of 119.2 x10_4/uL and an RBC ([…], time 14 day) of 693.2 x10_4/ul. For the same compound, the Ret ([…], time 14 day) was 4.9%, the WBC ([…], time 14 day) was 145.5 x10_2/uL and the APTT ([…], time 28 day) was 17.5 s. The Bas ([…], time 28 day) was 0%, the Eos ([…], time 28 day) was 1% and the Fbg ([…], time 28 day) was 250.6 mg/dL. It also gave a Hb ([…], time 28 day) of 15 g/dL, a Ht ([…], time 28 day) of 44.9% and a Lym ([…], time 28 day) of 82.8%. For the same compound, the MCH ([…], time 28 day) was 19.2 pg, the MCHC ([…], time 28 day) was 33.5% and the MCV ([…], time 28 day) was 57.3 fL. It also gave a Mono ([…], time 28 day) of 5.4%, a Neu ([…], time 28 day) of 10.8% and a PT ([…], time 28 day) of 11.9 s. The Plat ([…], time 28 day) was 107.1 x10_4/uL, the RBC ([…], time 28 day) was 783 x10_4/ul and the Ret ([…], time 28 day) was 2.5%. For the same compound, the WBC ([…], time 28 day) was 166.4 x10_2/uL, the KIDNEY_L ([…], time 7 day) was 1.2 g and the KIDNEY_R ([…], time 7 day) was 1.1 g. It also gave a KIDNEY_TOTAL ([…], time 7 day) of 2.3 g, a KIDNEY_L ([…], time 14 day) of 1.1 g and a KIDNEY_R ([…], time 14 day) of 1.2 g. The KIDNEY_TOTAL ([…], time 14 day) was 2.3 g, the KIDNEY_L ([…], time 28 day) was 1.4 g and the KIDNEY_R ([…], time 28 day) was 1.4 g. It also gave a KIDNEY_TOTAL ([…], time 28 day) of 2.7 g, an LIVER ([…], time 7 day) of 12.8 g and an LIVER ([…], time 14 day) of 14.1 g. It also gave an LIVER ([…], time 28 day) of 15.1 g, an A/G ([…], time 7 day) of 1.8 and an ALP ([…], time 7 day) of 746 IU/L. It also gave an ALT ([…], time 7 day) of 36.6 IU/L, an AST ([…], time 7 day) of 59 IU/L and a BUN ([…], time 7 day) of 19.2 mg/dL. It also gave a CRE ([…], time 7 day) of 0.5 mg/dL, a Ca ([…], time 7 day) of 10.9 mg/dL and a Cl ([…], time 7 day) of 105.2 meq/L. It also gave a DBIL ([…], time 7 day) of 0.012 mg/dL, a GLC ([…], time 7 day) of 186 mg/dL and an IP ([…], time 7 day) of 7.5 mg/dL. For the same compound, the K ([…], time 7 day) was 4.9 meq/L, the LDH ([…], time 7 day) was 85 IU/L and the Na ([…], time 7 day) was 140.4 meq/L. It also gave a PL ([…], time 7 day) of 168.2 mg/dL, an RALB ([…], time 7 day) of 3.9 g/dL and a TBIL ([…], time 7 day) of 0.3 mg/dL. It also gave a TC ([…], time 7 day) of 90 mg/dL, a TG ([…], time 7 day) of 113.2 mg/dL and a TP ([…], time 7 day) of 6.1 g/dL. It also gave a gamma-GTP ([…], time 7 day) of 1 IU/L, an A/G ([…], time 14 day) of 2 and an ALP ([…], time 14 day) of 859 IU/L. The ALT ([…], time 14 day) was 34 IU/L, the AST ([…], time 14 day) was 63.4 IU/L and the BUN ([…], time 14 day) was 20.2 mg/dL. The CRE ([…], time 14 day) was 0.5 mg/dL, the Ca ([…], time 14 day) was 11.3 mg/dL and the Cl ([…], time 14 day) was 106.8 meq/L. For the same compound, the DBIL ([…], time 14 day) was 0.014 mg/dL, the GLC ([…], time 14 day) was 183 mg/dL and the IP ([…], time 14 day) was 7.4 mg/dL. The K ([…], time 14 day) was 4.7 meq/L, the LDH ([…], time 14 day) was 85.6 IU/L and the Na ([…], time 14 day) was 140.2 meq/L. It also gave a PL ([…], time 14 day) of 167.6 mg/dL, an RALB ([…], time 14 day) of 4 g/dL and a TBIL ([…], time 14 day) of 0.3 mg/dL. For the same compound, the TC ([…], time 14 day) was 81 mg/dL, the TG ([…], time 14 day) was 118.6 mg/dL and the TP ([…], time 14 day) was 6.2 g/dL. It also gave a gamma-GTP ([…], time 14 day) of 2 IU/L, an A/G ([…], time 28 day) of 1.6 and an ALP ([…], time 28 day) of 681.8 IU/L. The ALT ([…], time 28 day) was 32.2 IU/L, the AST ([…], time 28 day) was 63.4 IU/L and the BUN ([…], time 28 day) was 19 mg/dL. It also gave a CRE ([…], time 28 day) of 0.4 mg/dL, a Ca ([…], time 28 day) of 10.8 mg/dL and a Cl ([…], time 28 day) of 106 meq/L. It also gave a DBIL ([…], time 28 day) of 0.012 mg/dL, a GLC ([…], time 28 day) of 189.8 mg/dL and an IP ([…], time 28 day) of 6.3 mg/dL. For the same compound, the K ([…], time 28 day) was 4.6 meq/L, the LDH ([…], time 28 day) was 86.4 IU/L and the Na ([…], time 28 day) was 140 meq/L. The PL ([…], time 28 day) was 148.4 mg/dL, the RALB ([…], time 28 day) was 4 g/dL and the TBIL ([…], time 28 day) was 0.3 mg/dL. It also gave a TC ([…], time 28 day) of 71 mg/dL, a TG ([…], time 28 day) of 122.2 mg/dL and a TP ([…], time 28 day) of 6.4 g/dL. For the same compound, the gamma-GTP ([…], time 28 day) was 1.8 IU/L.
